This passage reports IC50 results from patent US12384789B2, “Compounds for treating Huntington's disease” (PTC Therapeutics, Inc., priority 2017, dated 2025).

SMILES strings stand for the structures.

The subject of this assay is Endogenous Huntingtin Protein. Put plainly: Endogenous Huntingtin Protein Assay (Meso Scale Discovery ELISA-based electrochemiluminescence). Format: cell-based. As to conditions: MSD electrochemiluminescence, Table 1. In short, it runs like this: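 MSD electrochemiluminescence sandwich ELISA: MW1 (expanded polyQ) or MAB2166 capture antibody at 1 μg/mL, samples incubated overnight at 4° C. Detection with rabbit monoclonal #5656S then SULFO-TAG anti-rabbit antibody, each 0.25 μg/mL for 1 h at room temperature.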
In general terms: In an ELISA, binding on a coated surface is turned into a signal by an enzyme label.
The IC50 is the midpoint of a concentration-inhibition curve. Read a low IC50 as greater potency. As for `CCc1cc(-c2cc(F)c3cc(C4CCNCC4)nnc3c2)nc2cn(C)nc12` [Compound 172, 7-(7-ethyl-2-methyl-2H-pyrazolo[4,3-b]pyridin-5-yl)-5-fluoro-3-(piperidin-4-yl)cinnoline], the IC50 is no more than 100 nM.
Compound `CC[C@H]1CC(c2cc3c(F)cc(-c4cc(C)c5nc(C)cn5n4)cc3nn2)C[C@H](CC)N1C` (stereo partly drawn) [Compound 131, 3-[(2S,6S)-2,6-diethyl-1-methylpiperidin-4-yl]-7-(2,8-dimethylimidazo[1,2-b]pyridazin-6-yl)-5-fluorocinnoline] had a concentration for half-maximal inhibition (IC50) of no more than 100 nM.
The figure for `Cc1cc(-c2cc3c(F)cc([C@@]4(O)CCNC[C@@H]4O)cc3nn2)cc2cn(C)nc12` [Compound 203, (3S,4S)-4-[3-(2,7-dimethyl-2H-indazol-5-yl)-5-fluorocinnolin-7-yl]piperidine-3,4-diol] is 500 to 1000 nM.
`Cc1cn2nc(-c3cc(F)c4nc(C5CCNCC5)ncc4c3)cc(C)c2n1` [Compound 37, 6-(2,8-dimethylimidazo[1,2-b]pyridazin-6-yl)-8-fluoro-2-(piperidin-4-yl)quinazoline] gave an IC50 of no more than 100 nM.
The figure for `Cc1cn2cc(-c3nnc4cc(C5CCNCC5)ccc4n3)cc(F)c2n1` [Compound 43, 3-(8-fluoro-2-methylimidazo[1,2-a]pyridin-6-yl)-7-(piperidin-4-yl)-1,2,4-benzotriazine] is no more than 100 nM.
The figure for `Cc1cc(-c2cnc3cc(C4CCNCC4)ccc3c2)cc2cn(C)nc12` [Compound 29, 3-(2,7-dimethyl-2H-indazol-5-yl)-7-(piperidin-4-yl)quinoline] is 1000 to 3000 nM; for `CCN1CCC(c2cc3c(F)cc(-c4cc(OC)c5nn(C)cc5n4)cc3nn2)CC1` [Compound 173, 3-(1-ethylpiperidin-4-yl)-5-fluoro-7-(7-methoxy-2-methyl-2H-pyrazolo[4,3-b]pyridin-5-yl)cinnoline] it is no more than 100 nM; for `Cc1cc2sc(-c3cc(F)c4cc(C5CCNCC5)nnc4c3)nc2c(C)n1` [Compound 149, 7-(4,6-dimethyl[1,3]thiazolo[4,5-c]pyridin-2-yl)-5-fluoro-3-(piperidin-4-yl)cinnoline] it is no more than 100 nM.
The figure for `Cc1cn2nc(-c3cc(F)c4cc(C5CCNCC5)nnc4c3)cc(CCO)c2n1` [Compound 207, 2-{6-[5-fluoro-3-(piperidin-4-yl)cinnolin-7-yl]-2-methylimidazo[1,2-b]pyridazin-8-yl}ethan-1-ol] is no more than 100 nM; for `Cn1cc2cc(-c3ncc4cc(C5=CCNCC5)cc(F)c4n3)cc(F)c2n1` [Compound 165, 8-fluoro-2-(7-fluoro-2-methyl-2H-indazol-5-yl)-6-(1,2,3,6-tetrahydropyridin-4-yl)quinazoline] it is no more than 100 nM; for `Cc1cn2nc(-c3cc(F)c4cc(C5CCN(CCCn6cccn6)CC5)nnc4c3)cc(C)c2n1` [Compound 160, 7-(2,8-dimethylimidazo[1,2-b]pyridazin-6-yl)-5-fluoro-3-{1-[3-(1H-pyrazol-1-yl)propyl]piperidin-4-yl}cinnoline] it is no more than 100 nM.
`Cn1cc2cc(-c3cc(F)c4cc(C5CCNCC5)nnc4c3)cc(F)c2n1` [Compound 96, 5-fluoro-7-(7-fluoro-2-methyl-2H-indazol-5-yl)-3-(piperidin-4-yl)cinnoline] yielded an IC50 of no more than 100 nM.
